Source: patent US10624874B2, “Lasofoxifene modulation of membrane-initiated estrogen signals and methods for tumor treatment” (Zhejiang Jiachi Development Pharmaceuticals LTD, priority 2017, dated 2020)

What was measured:
H1299 cells = test: Proliferation of H1299 lung cancer cells; type: cell-based
Protocol: (§1) A. Cell lines HBE, H1299 and H460 were cultured. Expression of EGFR, ER-α66, ER-α46, ER-α36, ER-β, GPER-1 were tested using Western blot. B. HBE cells and H460 cells were treated with 2 μM tamoxifen or 2 μM lasofoxifene. Proliferation of HBE cells and H460 cells were shown after each treatment. C. H460 cells were treated with vehicle only, or gefitinib, or lasofoxifene, or a combination of gefitinib and lasofoxifene. Proliferation of […] were shown after each treatment. D. H1299 were treated with vehicle only, or gefitinib, or lasofoxifene, or a combination of gefitinib and lasofoxifene. Proliferation of lung cancer cells was shown after each treatment.
(§2) Cells were inoculated into 24 well plates with culture medium and treated using the designated concentration of drugs. Cell number was counted using a cell counter (Count Star). The cell bio-behaviors including total cell number and movement were measured using a real-time cell monitoring system. Briefly, the image was captured at 5 min intervals for 66 h. Cell morphological parameters and the movement of each individual cell was calculated following manufacture's instruction.
(§3) We thus tested the expression of ER-α36 from lung cancer cells.

H460 cells = test: Proliferation of H460 lung cancer cells; type: cell-based; details: for proliferation of H460 cells: 2 μM, ER-α36+/EGFR+ cells, FIG. 5-B
Protocol: as §1, §2, §3

ER-α = target: T1, ER-α (Homo sapiens, UniProt P03372); details: cited from earlier work
T1 sequence (P03372 311-547 limits assumed): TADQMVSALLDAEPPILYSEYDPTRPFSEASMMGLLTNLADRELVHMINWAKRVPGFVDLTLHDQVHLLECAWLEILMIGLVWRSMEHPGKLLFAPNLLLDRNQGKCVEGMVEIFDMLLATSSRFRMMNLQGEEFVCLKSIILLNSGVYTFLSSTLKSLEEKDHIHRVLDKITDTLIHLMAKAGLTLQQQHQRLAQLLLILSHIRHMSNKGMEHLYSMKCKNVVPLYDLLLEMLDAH

[1] = tested on: tamoxifen-resistance MCF-7 cells; test: Proliferation of acquired tamoxifen-resistance MCF-7 cells; type: cell-based, human; details: FIG. 4B
Protocol: A. MCF-7 cells were treated with tamoxifen for ten months. Expression of ER-α66, ER-α46, ER-α36, GPER-1 were tested using Western blot. B. After MCF-7 cells were treated with tamoxifen for ten months, cells were treated with either 2 μM tamoxifen or 2 μM lasofoxifene. Proliferation of MCF-7 were shown under each treatment. ** indicates P<0.01.
MCF-7 cells were grown in EMEM medium containing 10% FBS, antibiotics and 0.1 μM tamoxifen for three months. And then increase tamoxifen concentration to 0.5 μM for another three months, Finally, MCF-7 cells were grown in EMEM medium containing 10% FBS, antibiotics and 1 μM tamoxifen for four months. Tamoxifen-resistance MCF-7 cells were tested by counting cell proliferation rate when cells were grown in high concentration tamoxifen.
To verify our hypothesis that overexpressed ER-α36 variant may result in acquired de novo tamoxifen-resistance, we induced MCF-7 cells using tamoxifen for ten months. We found the expression of ER-α66 was decreased ([…], top panel). In contrast, the expression level of ER-α36 was enhanced (FIG. 4A, middle panel). The expression level of GPER1 was not affected (FIG. 4A bottom panel).

ER-β = ER-β (Homo sapiens, UniProt Q92731); details: higher affinity than raloxifene and tamoxifen; Gennari 2006; cited from earlier work
ER-β, sequence (Q92731 whole entry, species assumed): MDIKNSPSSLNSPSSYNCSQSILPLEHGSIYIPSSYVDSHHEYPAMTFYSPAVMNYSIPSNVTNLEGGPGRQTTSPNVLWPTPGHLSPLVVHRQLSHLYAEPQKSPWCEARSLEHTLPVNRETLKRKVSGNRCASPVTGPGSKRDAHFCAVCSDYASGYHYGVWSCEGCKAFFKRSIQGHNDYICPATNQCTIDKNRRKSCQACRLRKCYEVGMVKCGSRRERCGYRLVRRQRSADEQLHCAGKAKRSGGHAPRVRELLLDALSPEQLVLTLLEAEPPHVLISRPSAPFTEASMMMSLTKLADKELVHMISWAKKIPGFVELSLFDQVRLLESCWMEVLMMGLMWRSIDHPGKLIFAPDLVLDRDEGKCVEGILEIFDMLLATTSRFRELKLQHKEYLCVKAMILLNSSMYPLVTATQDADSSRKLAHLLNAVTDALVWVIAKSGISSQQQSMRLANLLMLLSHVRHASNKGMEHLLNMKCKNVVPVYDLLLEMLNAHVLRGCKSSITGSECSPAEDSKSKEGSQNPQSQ

GPER1 = target: T2, GPER1 (Homo sapiens, UniProt Q99527); test: Cytosolic Ca2+ in HEK293 cells overexpressing GPER1-EGFP (Fura-red); type: cell-based; details: HEK293 overexpressing GPER1-EGFP vs EGFP vector, FIG. 11B
T2 construct: expressed in transfected cells; host or cells: HEK293
T2 sequence (Q99527 whole entry, species assumed): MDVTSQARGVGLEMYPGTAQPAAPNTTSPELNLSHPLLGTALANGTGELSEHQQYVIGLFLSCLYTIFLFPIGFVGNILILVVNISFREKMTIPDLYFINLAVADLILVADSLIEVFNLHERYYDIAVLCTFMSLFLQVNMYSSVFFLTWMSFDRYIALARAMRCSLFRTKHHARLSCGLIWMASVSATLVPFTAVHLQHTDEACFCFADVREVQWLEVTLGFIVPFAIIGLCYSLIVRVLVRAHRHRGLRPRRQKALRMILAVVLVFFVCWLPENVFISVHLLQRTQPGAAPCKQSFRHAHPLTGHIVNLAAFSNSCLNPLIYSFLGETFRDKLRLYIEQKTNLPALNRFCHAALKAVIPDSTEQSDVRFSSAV
Protocol: A. HEK293 cells were transfected with either GPER1-EGFP or EGFP alone.
The assays were performed as following. Briefly, cells were grown on a glass-bottomed perfusion chamber mounted on the stage of an inverted confocal microscope (Andor), and then incubated with 2 μM Fura-red AM (Molecular Probes, Eugene, Oreg., USA) for 60 min at 37° C. in normal culture media. Cells were then perfused continuously with Hanks' balanced salt solution (Sigma) containing 1.8 mM CaCl2 and 0.8 mM MgCl2, pH 7.4. […] Cells were perfused with complete culture media without phenol red, and Fura-red was excited at 572 nm. The fluorescence emitted at 657 nm was then collected and recorded using a CCD-based imaging system running software (Andor).

HBE cells = test: Proliferation of HBE cells; type: cell-based; details: 2 μM, cells not expressing ER-α36, FIG. 5-B
Protocol: as §1, §2, §3

xenograft H460 tumors = test: Growth of xenograft H460 tumors in nude mice; type: in vivo; details: intragastric daily for 2-3 weeks, FIG. 7
Protocol: FIG. 7: Activity to Inhibition of growth of xenograft-ER-α36+/EGFR+ lung tumor (H460) in nude mice by lasofoxifene (LAS) and/or gefitinib. A. Nude mice were grafted with H460 cells. Tumor size were shown after treatment with gefitinib, 3 mg lasofoxifene per kilogram of mouse body mass (3 mg/kg, Las3.0), 1.5 mg lasofoxifene per kilogram of mouse body mass (1.5 mg/kg, Las1.5), 0.75 mg lasofoxifene per kilogram of mouse body mass (0.75 mg/kg, Las0.75), or a combination of gefitinib and 1.5 mg lasofoxifene per kilogram of mouse body mass (Gef+Las1.5). B. Statistical result of tumor mass from two repeat experiments (n≥6).* and ** mean P<0.05 and P<0.01, respectively.
H460 cells were grown in RPMI-1640 medium containing 10% FBS. When cells are 70-80% confluent and ready for experiments, replace medium with fresh medium for 3 hours. Remove medium and wash cells with medium without FBS for three times. Cells were then trypsinized and suspended in medium, equal volume of cells and support gel was mixed up to 200 μl for each injection. Cells were injected subcutaneously (s.c.) into 4-6 week old nude mice. 1.0˜2.0×10^6 H460 cells were administrated into each nude mouse. […] Tumor size were calculated by the formula: volume=(width)^2×length/2.
To verify in vitro results, we constructed xenograft H460 tumors in nude mice. The tumor size was measured using digital vernier caliper. […]

MCF-7 cells = test: Inhibition of MCF-7 cell division, cells pre-cultured with or without insulin; type: cell-based, human; details: same drug compared between ER-α36 positive (insulin-free) and insulin medium cells, FIG. 3B
Protocol: A. MCF-7 cells were grown in insulin-free (IL-) medium for three months. Expression of ER-α66, ER-α36, ER-β and GPER were tested using Western blot. B. MCF-7 cells, after cultured in either medium with insulin or without insulin, were treated with tamoxifen or lasofoxifene. […] C. It compares IC50 (μM) of MCF-7 cells responding to tamoxifen or lasofoxifene at the condition of pre-cultured in medium without insulin. *** indicates P<0.001. D. Graph compares IC50 (μM) of MCF-7 cells responding to tamoxifen or lasofoxifene at the condition of pre-cultured in medium with insulin. * indicates P<0.05.
The transcription variant of ER-α36 lacks the AF-1 and AF2 domains. […] It was found located at plasma membrane and cytosol (Boonyaratanakornkit, V. Steroids. 2011 August; 76(9):877-84). […] Phosphorylated IRS interacts with dimer estrogen-ER complexes, which can then translocate into the nucleus and bond with ERE sequence to regulate RNA transcription through the estrogen classical nuclear pathway. […] In contrast, the expression levels of other estrogen receptors were not affected (FIG. 3A).

[2] = tested on: Bcl-2 expression in MCF-7 cells; test: Bcl-2 expression in MCF-7 cells by western blotting; type: cell-based, human; details: for effect on Bcl-2 expression in medium without estrogen: MCF-7, charcoal stripped FBS, phenol red-free EMEM, vs Blank, FIG. 2B
Protocol: FIG. 2: Inhibition of Bcl-2 expression in MCF-7 cells by lasofoxifene in comparison with tamoxifen. A: MCF-7 cells were cultured in either EMEM medium containing 10% FBS (Normal) or 5% charcoal striped FBS (CS) for 72 hours. Western blotting assay were performed to analyze Bcl-2 expression (CS: charcoal striped). B: MCF-7 cells were cultured in EMEM medium containing insulin and 5% charcoal striped FBS for 72 hours and then treated by lasofoxifene and tamoxifen for 48 hours. Western blotting assay were performed to analyze Bcl-2 expression. C. MCF-7 were cultured in EMEM medium containing insulin and 10% FBS for 72 hours and then treated by lasofoxifene and tamoxifen for 48 hours. Western blotting assay were performed to analyze Bcl-2 expression. […] E. Statistical analysis of three repeats of part C. N=3×3.
HEK-293, MCF-7, MDA-MB-231, HBE, H1299 and H460 cells were grown following ATCC protocol. The expression level of estrogen-bound receptors was measured using western blotting. Briefly, 80-90% confluence cells were harvested and lysed in RIPA buffer or 1×PBS containing 1% triton-x-100 and protease inhibitor cocktail. Total protein concentration was measured using Bio-rad protein staining dye. Western blotting was performed following standard protocol using nitrocellulose membrane (Millipore) and Bio-rad semi-dry transfer system. The equal amount of total protein from cell lysate was loaded to SDS-PAGE for western blotting. The expression level of ER-α36 and 66, ER-β and GPER1 was measured using antibody.
Estrogen and ER complex binds to estrogen response element (ERE) in chromosome to regulate RNA transcription. Bcl-2 is a key member of anti-apoptosis family proteins. Its overexpression has been linked to many kinds of cancers in human being. […] We first assessed whether lasofoxifene inhibited Bcl-2 expression at higher efficiency compared to tamoxifen. MCF-7 cells were grown in DMEM medium containing insulin and 10% FBS or 5% charcoal striped FBS for 72 h. Cells were then treated by lasofoxifene and tamoxifen for 48 h. We confirmed previous study that the expression of Bcl-2 protein was enhanced by culture medium containing estrogen compared with that containing charcoal-stripped (CS) FBS (FIGS. 2A and B, Blank).

colon cancer cells = test: Colon cancer cell division; type: cell-based; details: ER-α36 positive colon cancer cells, FIG. 8-B
Source text: (§4) A: ER-α36 was positively expressed in colon cancer cells. […] NCC: normal colon cells. CCC: colon cancer cells. C: ER-α36 was positively expressed in gastric cancer cells. […] NGC: normal gastric cells. GCC: gastric cancer cells. N=3×3; *** means P<0.001.

gastric cancer cells = test: Gastric cancer cell division; type: cell-based; details: ER-α36 positive gastric cancer cells, FIG. 8-D
Source text: as §4

[3] = tested on: BT474 breast cancer cells; test: Proliferation of Herceptin-resistance BT474 breast cancer cells; type: cell-based; details: cells treated with 10 μg/ml Herceptin 3 months; 2 μM lasofoxifene, FIG. 10B
Protocol: BT474 breast cancer cells were treated with 10 μg/ml Herceptin® in medium for 3 months. A. Cells positively expressed of ER-α36, and decreased the expression level of HER2.

[4] = tested on: MDA-MB231 breast cancer cells; test: Proliferation of triple negative MDA-MB231 breast cancer cells; type: cell-based; details: ER-α36 positive MDA-MB231, DMEM 10% FBS, FIG. 9
Source text: MDA-MB231 cells treated with lasofoxifene in DMEM medium containing 10% FBS. N=3×3; * and ** mean P<0.05 and P<0.01, respectively.

With `COc1cc2ncnc(Nc3ccc(F)c(Cl)c3)c2cc1OCCCN1CCOCC1` [gefitinib] the “proliferation of H1299 cells, gefitinib alone or combined” value (H1299 cells; concentration not given, FIG. 5D) was “did not inhibit H1299 cell proliferation” and the “proliferation of H460 cells, gefitinib alone or combined” value (H460 cells; concentration not given, FIG. 5C) was “inhibited the proliferation of H460”.
In the case of `Oc1ccc2c(c1)CC[C@H](c1ccccc1)[C@@H]2c1ccc(OCCN2CCCC2)cc1` [lasofoxifene, (−)-cis-(5R,6S)-6-phenyl-5-[4-(2-pyrrolidin-1-ylethoxy)phenyl]-5,6,7,8-tetrahydronaphthalen-2-ol], the “affinity for ER-α relative to those reported for raloxifene and tamoxifen” value (ER-α; higher affinity than raloxifene and tamoxifen, Gennari 2006) is listed as “at least 10 fold”, the “binding affinity to ER-αLBD” value (ER-α; reported value) is listed as 1.5 nM and the inhibition at 2 µM ([1]; Homo sapiens, MCF7, MCF-7 induced by tamoxifen for over 10 months, read-out: inhibiting activity on proliferation) is listed as greater than 50%. For the same compound, the “affinity for ER-β relative to those reported for raloxifene and tamoxifen” value (ER-β) was “at least 10 fold”, the “cytosolic [Ca2+]i” value (GPER1) was “significantly enhanced cytosolic [Ca^2+]i” and the “proliferation of HBE cells” value (HBE cells) was “Neither tamoxifen nor lasofoxifene affected the proliferation of HBE cells”. The “growth of xenograft H460 tumors” value (xenograft H460 tumors) was “inhibited the growth of xenograft H460 tumors”, the “inhibition of MCF-7 cell division, without vs with insulin (IC50 comparison)” value (MCF-7 cells) was “more effectively inhibited divisions of MCF-7 cell which positively expressed ER-α36” and the “effect on Bcl-2 expression in medium without estrogen” value ([2]; treated 48 h) was “neither tamoxifen nor lasofoxifene affected Bcl-2 expression”. The “inhibition of Bcl-2 expression” value ([2]; MCF-7, medium with insulin and 10% FBS 72 h, treated 48 h, 2.5 μM LAS vs 2.5 μM TAM, FIG. 2C) was “weaker activity to inhibit Bcl-2 expression compared with tamoxifen”, the “dose dependence of Bcl-2 expression inhibition” value ([2]; MCF-7, medium with insulin and 10% FBS, 48 h, FIG. 2D) was “inhibited Bcl-2 expression in a dosage dependent manner” and the “proliferation of H1299 cells” value (H1299 cells; 2 μM, ER-α36 high, weak EGFR, FIG. 5-D) was “inhibited”. For the same compound, the “colon cancer cell division” value (colon cancer cells) was “inhibited colon cancer cell division”, the “gastric cancer cell division” value (gastric cancer cells) was “inhibited gastric cancer cell division” and the “proliferation of H460 cells” value (H460 cells) was “inhibited”. The “proliferation of Herceptin-resistance BT474 cells” value [3] was “Sensitive response” and the “proliferation of triple negative breast cancer cells” value [4] was “the same lasofoxifene activity was also found”.
In the case of `O=C(c1ccc(OCCN2CCCCC2)cc1)c1c(-c2ccc(O)cc2)sc2cc(O)ccc12` [raloxifene], the “cytosolic [Ca2+]i” value (GPER1) is reported as “significantly enhanced cytosolic [Ca^2+]i”.
In the case of `CC/C(=C(\c1ccccc1)c1ccc(OCCN(C)C)cc1)c1ccccc1` [tamoxifen], the “inhibiting activity on proliferation” value ([1]; 2 μM, MCF-7 induced by tamoxifen for over 10 months) is reported as “did not inhibit MCF-7 cell proliferation”, the “proliferation of HBE cells” value (HBE cells) is reported as “Neither tamoxifen nor lasofoxifene affected the proliferation of HBE cells” and the “inhibition of MCF-7 cell division, without vs with insulin (IC50 comparison)” value (MCF-7 cells) is reported as “exerted the opposite effect”. The “effect on Bcl-2 expression in medium without estrogen” value ([2]; treated 48 h) was “neither tamoxifen nor lasofoxifene affected Bcl-2 expression” and the “proliferation of H460 cells” value (H460 cells) was “exhibited opposite effect”.
